SMILES strings stand for the structures. pIC50: −log10 of the molar value. Read-outs that look alike come from different tables or passages of the source.

For data set [1], the system named is kinases of the PI3K isoenzyme family. Particulars: cited from earlier work.
The conditions of data set [2]: cited from earlier work.
For data set [3], the target named is T1, DNA-PK (Homo sapiens (Human), UniProt P78527). Description: DNA-PK biochemical assay (FlashPlate kinase assay, Example 4). Conditions: 5 μM ATP. Here is the method: The kinase assay was carried out in streptavidin-coated […] microtitre FlashPlates®. To this end, 1.5 μg of the DNA-PK/protein complex and 100 ng of biotinylated substrate, such as, for example, PESQEAFADLWKK biotin-NH2 (“biotin-DNA-PK peptide”), in a total volume of 36.5 μl (34.25 mM HEPES/KOH, 7.85 mM Tris-HCl, 68.5 mM KCl, 5 μM ATP, 6.85 mM MgCl2, 0.5 mM EDTA, 0.14 mM EGTA, 0.69 mM DTT, pH 7.4), were incubated at room temperature for 90 min with 500 ng of DNA from calf thymus, 0.1 μCi of 33P-ATP and 1.8% of DMSO per well with or without the test compound. The reaction was stopped using 50 μl/well of 200 mM EDTA. After incubation for a further 30 min at room temperature, the liquid was removed. Each well was washed three times with 100 μl of 0.9% sodium chloride solution. A non-specific reaction (blank value) was determined using 10 μM of a proprietary kinase inhibitor. The radioactivity measurement was carried out by means of a TopCount. IC50 values were calculated in RS1 (Kashishian et al. (2003) Molecular Cancer Therapeutics 1257) and are compiled in Table 1.

The subject of a further data set is HCT116 cells. Description: Cellular colony growth test with X-ray irradiation (Example 6). Type of data set: cell-based. Particulars: Homo sapiens, HCT-116; HCT116, at 4.8 Gray. Here is the method: The colorectal carcinoma cell line HCT116 was cultivated in MEM alpha medium with 10% of foetal calf serum, 1 mM sodium pyruvate and 2 mM glutamine at 37° C. and 10% CO2. The cells were detached from the base of the culture vessels with the aid of trypsine/EDTA, centrifuged off in centrifuge tubes and taken up in fresh medium. The cell density was subsequently determined. 300 cells were sown out in 6-well cell culture plates in 2 ml of culture medium and cultivated overnight. Next day, the cells were treated with test substances for one hour before the cell culture plates were treated with defined doses of X-rays (in general 0, 2.4, 4.8, 12 Gray; irradiation instrument: Faxitron RX-650; Faxitron X-Ray LLC, USA). In order to determine the dose/effect relationships, the cells were treated with various concentrations of a test substance. After irradiation, the cells are cultivated for a further 24 hours in the presence of the test substance, the culture medium was then replaced with culture medium without test substance, and the cells were cultivated for a further 6-8 days. The cell colonies formed were subsequently stained with the aid of Crystal Violet and counted in a colony counter (Gelcount, Oxford Optronics, UK). Dose/effect curves, in particular IC50 values, were determined using a curve adaptation function for nonlinear dose/effect relationships.

In data set [4] the target is T1, DNA-PK. Particulars: Hardcastle et al. (2005); cited from earlier work.
In data set [5] the test system is DNA-PK phosphorylation at serine 2056 in HCT116 cells. Description: Cellular DNA-PK phosphorylation at serine 2056 (Example 5). Type of data set: cell-based. Particulars: 10 μM bleomycin, six hours. Here is the method:
HCT116 cells were cultivated in MEM alpha medium with 10% of foetal calf serum, 1 mM sodium pyruvate and 2 mM glutamine at 37° C. and 10% CO2. The cells were detached from the base of the culture vessels with the aid of trypsine/EDTA, centrifuged off in centrifuge tubes and taken up in fresh medium. The cell density was subsequently determined. 200,000 cells were sown per cavity of a 12-well cell culture plate in 1 ml of culture medium and cultivated overnight. Next day, 10 μM bleomycin and test substances in fresh culture medium was added to the cells and these were cultivated for a further six hours. Cell lysis was subsequently carried out. The cell lysates were investigated by SDS polyacrylamide gel electrophoresis by means of DNA-PK-specific antibodies (Abcam ab13852: total DNA-PK; ab18192: phosphoserine 2056 DNA-PK) and Western Blotting. The enzymatic reaction was developed with the aid of a chemiluminescence reagent. The chemiluminescence was recorded with the aid of a documentation system (VersaDoc™, Bio-Rad, USA) and evaluated densitometrically with the aid of instrument-specific software (Quantity One). The signals with phospho-DNA-PK-specific antibodies were standardised to the signal with the antibody against the total protein DNA-PK. IC50 values and percentage inhibition data were determined by referencing to the signal level of the bleomycin-treated vehicle control group.

Another data set relates to mammal cells. Particulars: Rosenzweig et al. (1999); cited from earlier work.

For the compound `CCN1CCN(CC(=O)Nc2ccc(-c3cccc4c(=O)cc(N5CCOCC5)oc34)c3sc4ccccc4c23)CC1` [KU-0060648], the “inhibition of kinases of the PI3K isoenzyme family” value in data set [1] is recorded as “potently inhibited”. Also, the “solubility profile in aqueous medium” value in data set [2] was “improved solubility profile”.
For the compound `COc1ccc([C@H](O)[C@H]2CCCN(c3nnnc4cc(N5CCOCC5)ccc34)C2)cn1` [compound 17, (R)-(6-Methoxy-pyridin-3-yl)-[(S)-1-(7-morpholin-4-ylbenzo[d]-1,2,3-triazin-4-yl)-piperidin-3-yl]-methanol], on DNA-PK [3] (read-out: Bonding DNA-PK IC50), the pIC50 was > 7.00.
In the case of `CC(C)(C)n1cc([C@@H](O)[C@H]2CCCN(c3nnnc4cc(N5CCOCC5)ccc34)C2)cn1` [compound 19, (S)-(1-tert-Butyl-1H-pyrazol-4-yl)-[(S)-1-(7-morpholin-4-yl-benzo[d]-1,2,3-triazin-4-yl)-piperidin-3-yl]-methanol], the pIC50 on DNA-PK [3] (read-out: Bonding DNA-PK IC50) was > 7.00.
In the case of `C[C@](O)(c1nccs1)[C@H]1CCCN(c2nnnc3cc(N4CCOCC4)ccc23)C1` [compound 8, (R)-1-[(S)-1-(7-Morpholin-4-yl-benzo[d]-1,2,3-triazin-4-yl)-piperidin-3-yl]-1-thiazol-2-yl-ethanol], the pIC50 at DNA-PK [3] (read-out: Bonding DNA-PK IC50) was > 7.00.
Take `Cc1nc([C@H](O)[C@@H]2CCCN(c3nnnc4cc(N5CCOCC5)ccc34)C2)sc1C` [compound 10, (R)-(4,5-Dimethyl-thiazol-2-yl)-[(R)-1-(7-morpholin-4-ylbenzo[d]-1,2,3-triazin-4-yl)-piperidin-3-yl]-methanol]: the pIC50 on DNA-PK [3] (read-out: Bonding DNA-PK IC50) was > 7.00.
Turning to `CCn1cc([C@@H](O)[C@H]2CCCN(c3nnnc4cc(N5CCOCC5)ccc34)C2)cn1` [compound 20, (S)-(1-Ethyl-1H-pyrazol-4-yl)-[(S)-1-(7-morpholin-4-ylbenzo[d]-1,2,3-triazin-4-yl)-piperidin-3-yl]-methanol], on DNA-PK [3] (read-out: Bonding DNA-PK IC50), the pIC50 was > 7.00.
`Cc1csc([C@H](O)[C@@H]2CCCN(c3nnnc4cc(N5CCOCC5)ccc34)C2)n1` [compound 7, (R)-(4-Methyl-thiazol-2-yl)-[(R)-1-(7-morpholin-4-ylbenzo[d]-1,2,3-triazin-4-yl)-piperidin-3-yl]-methanol]: the pIC50 on DNA-PK [3] (read-out: Bonding DNA-PK IC50) is > 7.00.
Still for that read-out and setting: in the case of `CC(C)n1cc([C@@H](O)[C@H]2CCCN(c3nnnc4cc(N5CCOCC5)ccc34)C2)cn1` [compound 18, (S)-(1-Isopropyl-1H-pyrazol-4-yl)-[(S)-1-(7-morpholin-4-yl-benzo[d]-1,2,3-triazin-4-yl)-piperidin-3-yl]-methanol] it was > 7.00; in that of `Cc1csc([C@@H](O)[C@H]2CCCN(c3nnnc4cc(N5CCOCC5)ccc34)C2)n1` [compound 4, (S)-(4-Methyl-thiazol-2-yl)-[(S)-1-(7-morpholin-4-ylbenzo[d]-1,2,3-triazin-4-yl)-piperidin-3-yl]-methanol], > 7.00.
In the case of `Cc1cnc([C@@H](O)[C@H]2CCCN(c3nnnc4cc(N5CCOCC5)ccc34)C2)s1` [No. 12, (S)-(5-Methyl-thiazol-2-yl)-[(S)-1-(7-morpholin-4-ylbenzo[d]-1,2,3-triazin-4-yl)-piperidin-3-yl]-methanol], the pIC50 at DNA-PK [3] (read-out: Bonding DNA-PK IC50) is > 7.00; in the data set with HCT116 cells, > 6.40.
As for `C[C@@](O)(c1nccs1)[C@H]1CCCN(c2nnnc3cc(N4CCOCC4)ccc23)C1` [compound 9, (S)-1-[(S)-1-(7-Morpholin-4-yl-benzo[d]-1,2,3-triazin-4-yl)-piperidin-3-yl]-1-thiazol-2-yl-ethanol], the pIC50 at DNA-PK [3] (read-out: Bonding DNA-PK IC50) is > 7.00.
Regarding `Cc1nc([C@@H](O)[C@H]2CCCN(c3nnnc4cc(N5CCOCC5)ccc34)C2)sc1C` [compound 11, (S)-(4,5-Dimethyl-thiazol-2-yl)-[(S)-1-(7-morpholin-4-ylbenzo[d]-1,2,3-triazin-4-yl)-piperidin-3-yl]-methanol], the pIC50 on DNA-PK [3] (read-out: Bonding DNA-PK IC50) is > 7.00.
Regarding `O=c1cc(N2CCOCC2)oc2c(-c3cccc4c3sc3ccccc34)cccc12` [NU-7441], the pIC50 at DNA-PK [4] was 7.70.
For the compound `Cc1csc([C@H](O)[C@H]2CCCN(c3nnnc4cc(N5CCOCC5)ccc34)C2)n1` [compound 5, (R)-(4-Methyl-thiazol-2-yl)-[(S)-1-(7-morpholin-4-ylbenzo[d]-1,2,3-triazin-4-yl)-piperidin-3-yl]-methanol], the pIC50 at DNA-PK [3] (read-out: Bonding DNA-PK IC50) was > 7.00.
`O[C@H](c1nccs1)[C@H]1CCCN(c2nnnc3cc(N4CCOCC4)ccc23)C1` [(S)-[(S)-1-(7-morpholin-4-ylbenzo[d]-1,2,3-triazin-4-yl)piperidin-3-yl]thiazol-2-ylmethanol]: the pIC50 at DNA-PK [3] (read-out: biochemical activity (assay from Example 4)) was 9.00. Further, the “cellular activity (assay from Example 5)” value in data set [5] is “sub-micromolar”.
Consider `O[C@@H](c1nccs1)[C@@H]1CCCN(c2nnnc3cc(N4CCOCC4)ccc23)C1` [compound 3, (R)-[(R)-1-(7-Morpholin-4-yl-benzo[d]-1,2,3-triazin-4-yl)-piperidin-3-yl]-thiazol-2-yl-methanol], for which the pIC50 at DNA-PK [3] (read-out: Bonding DNA-PK IC50) was > 7.00.
In the case of `Cc1csc([C@@H](O)[C@@H]2CCCN(c3nnnc4cc(N5CCOCC5)ccc34)C2)n1` [compound 6, (S)-(4-Methyl-thiazol-2-yl)-[(R)-1-(7-morpholin-4-ylbenzo[d]-1,2,3-triazin-4-yl)-piperidin-3-yl]-methanol], at DNA-PK [3] (read-out: Bonding DNA-PK IC50), the pIC50 is > 7.00.
Consider `O=c1cc(N2CCOCC2)oc2c(-c3ccccc3)cccc12` [LY294002], for which the “increase in sensitivity to ionising irradiation in cellular terms” value with mammal cells is reported as “weak increase”.
Turning to `Cc1cnc([C@H](O)[C@H]2CCCN(c3nnnc4cc(N5CCOCC5)ccc34)C2)s1` [compound 13, (R)-(5-Methyl-thiazol-2-yl)-[(S)-1-(7-morpholin-4-ylbenzo[d]-1,2,3-triazin-4-yl)-piperidin-3-yl]-methanol], on DNA-PK [3] (read-out: Bonding DNA-PK IC50), the pIC50 was > 7.00.
On to `COc1ccc([C@@H](O)[C@H]2CCCN(c3nnnc4cc(N5CCOCC5)ccc34)C2)nn1` [compound 14, (S)-(6-Methoxy-pyridazin-3-yl)-[(S)-1-(7-morpholin-4-yl-benzo[d]-1,2,3-triazin-4-yl)-piperidin-3-yl]-methanol], for which the pIC50 at DNA-PK [3] (read-out: Bonding DNA-PK IC50) was > 7.00.
In the case of `O[C@@H](c1nccs1)[C@H]1CCCN(c2nnnc3cc(N4CCOCC4)ccc23)C1` [compound 1, (R)-[(S)-1-(7-Morpholin-4-yl-benzo[d]-1,2,3-triazin-4-yl)-piperidin-3-yl]-thiazol-2-yl-methanol], the pIC50 at DNA-PK [3] (read-out: Bonding DNA-PK IC50) was > 7.00.
The same measure, in the same setting: to `O[C@H](c1nccs1)[C@@H]1CCCN(c2nnnc3cc(N4CCOCC4)ccc23)C1` [compound 2, (S)-[(R)-1-(7-Morpholin-4-yl-benzo[d]-1,2,3-triazin-4-yl)-piperidin-3-yl]-thiazol-2-yl-methanol] belongs > 7.00.
Same read-out and setting: in the case of `COc1ccc([C@@H](O)[C@H]2CCCN(c3nnnc4cc(N5CCOCC5)ccc34)C2)cn1` [compound 16, (S)-(6-Methoxy-pyridin-3-yl)-[(S)-1-(7-morpholin-4-ylbenzo[d]-1,2,3-triazin-4-yl)-piperidin-3-yl]-methanol] it was > 7.00; in that of `COc1ccc([C@H](O)[C@H]2CCCN(c3nnnc4cc(N5CCOCC5)ccc34)C2)nn1` [compound 15, (R)-(6-Methoxy-pyridazin-3-yl)-[(S)-1-(7-morpholin-4-yl-benzo[d]-1,2,3-triazin-4-yl)-piperidin-3-yl]-methanol], > 7.00.

(Values after patent US9187469B2, “Morpholinylbenzotriazines for use in cancer therapy” (Merck Patent GmbH, priority 2011, dated 2015).)
